The assay addresses HIF-PHD2 (Homo sapiens (Human), UniProt Q9GZT9). Put plainly: Assay of HIF-PHD2 Enzyme Activity (TR-FRET). It counts as biochemical. The note with it: 600 nM full length PHD2, 0.2 μM 2-oxoglutarate, 0.5 μM HIF-1α peptide. As to the method: HIF-PHD2 activity was measured using homogeneous TR-FRET technology (see also, US2008/004817; Dao J H et al., Anal Biochem. 2009, 384:213-23). To each well of a ½Area 96-well plate was added 2 μL of test compound in DMSO and 40 μL of assay buffer (50 mM Tris PH7.4/0.01% Tween-20/0.1 mg/ml BSA/1 mM Sodium ascorbate/20 μg/ml Catalase/10 μM FeSO4) containing 600 nM full length PHD2. After a 30 min preincubation at room temperature, the enzymatic reactions were initiated by the addition of 8 μL of substrates (final concentrations of 0.2 μM 2-oxoglutarate and 0.5 μM HIF-1α peptide biotinyl-[…]). After 2 hr at room temperature, the reactions were terminated and signals were developed by the addition of a 50 μL quench/detection mix to a final concentration of 1 mM ortho-phenanthroline, 0.1 mM EDTA, 0.5 nM anti-(His)6LANCE reagent, 100 nM AF647-labeled Streptavidin, and 30 nM (His)6-VHL-elonginB-elonginC complex. The ratio of time resolved fluorescence signals at 665 and 620 nm was determined, and percent inhibition was calculated relative to an uninhibited control sample run in parallel.
Background: In TR-FRET formats the signal depends on donor and acceptor labels being close together.

The IC50 is the point on the concentration scale where inhibition reaches its midpoint.

HIF-PHD2, sequence (Q9GZT9 whole entry): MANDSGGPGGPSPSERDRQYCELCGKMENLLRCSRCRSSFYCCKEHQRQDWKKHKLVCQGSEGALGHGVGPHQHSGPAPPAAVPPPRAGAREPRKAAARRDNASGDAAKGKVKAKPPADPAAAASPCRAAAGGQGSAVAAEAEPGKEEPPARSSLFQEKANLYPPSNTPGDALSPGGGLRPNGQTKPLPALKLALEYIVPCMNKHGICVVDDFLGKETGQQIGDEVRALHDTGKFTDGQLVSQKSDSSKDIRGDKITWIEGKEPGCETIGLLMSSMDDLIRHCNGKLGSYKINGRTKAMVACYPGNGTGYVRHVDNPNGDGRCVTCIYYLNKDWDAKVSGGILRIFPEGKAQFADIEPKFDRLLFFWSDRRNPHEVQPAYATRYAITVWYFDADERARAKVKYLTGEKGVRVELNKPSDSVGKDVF

`O=C(O)CNC(=O)c1c(O)c2ccc(-c3ccccc3)cc2oc1=O` [Example 1, N-[(4-hydroxy-2-oxo-7-phenyl-2H-3-chromenyl)carbonyl]glycine] gave an IC50 of 250 nM.
`O=C(O)CNC(=O)c1c(O)c2ccc(-c3ccccc3Cl)cc2oc1=O` [Example 2, N-[(4-hydroxy-2-oxo-7-(2-chloro-phenyl)-2H-3-chromenyl)carbonyl]glycine]: the midpoint of inhibition, the IC50, lay at 150 nM.
Regarding `O=C(O)CNC(=O)c1c(O)c2ccc(-c3cccc(Cl)c3)cc2oc1=O` [Example 3, N-[(4-hydroxy-2-oxo-7-(3-chloro-phenyl)-2H-3-chromenyl)carbonyl]glycine], the IC50 was found to be 150 nM.
Under `O=C(O)CNC(=O)c1c(O)c2ccc(-c3ccc(Cl)cc3)cc2oc1=O` [Example 4, N-[(4-hydroxy-2-oxo-7-(4-chloro-phenyl)-2H-3-chromenyl)carbonyl]glycine] stands 150 nM; under `O=C(O)CNC(=O)c1c(O)c2ccc(-c3cccc(C(F)(F)F)c3)cc2oc1=O` [Example 5, N-[(4-hydroxy-2-oxo-7-(3-trifluoromethyl-phenyl)-2H-3-chromenyl)carbonyl]glycine], 150 nM; under `O=C(O)CNC(=O)c1c(O)c2ccc(-c3ccc(C(F)(F)F)cc3)cc2oc1=O` [Example 6, N-[(4-hydroxy-2-oxo-7-(4-trifluoromethyl-phenyl)-2H-3-chromenyl)carbonyl]glycine], 150 nM.
`O=C(O)CNC(=O)c1c(O)c2ccc(-c3cccc(OC(F)(F)F)c3)cc2oc1=O` [Example 7, N-[(4-hydroxy-2-oxo-7-(3-trifluoromethoxy-phenyl)-2H-3-chromenyl)carbonyl]glycine]: half-maximal inhibition (IC50) required 150 nM.
`O=C(O)CNC(=O)c1c(O)c2ccc(-c3ccc(OC(F)(F)F)cc3)cc2oc1=O` [Example 8, N-[(4-hydroxy-2-oxo-7-(4-trifluoromethoxy-phenyl)-2H-3-chromenyl)carbonyl]glycine] registered an IC50 of 150 nM.
The compound `O=C(O)CNC(=O)c1c(O)c2ccc(-c3ccc(Cl)c(Cl)c3)cc2oc1=O` [Example 9, N-[(4-hydroxy-2-oxo-7-(3,4-dichloro-phenyl)-2H-3-chromenyl)carbonyl]glycine] showed an IC50 of 150 nM.
Next, `O=C(O)CNC(=O)c1c(O)c2ccc(-c3ccc(F)c(F)c3)cc2oc1=O` [Example 10, N-[(4-hydroxy-2-oxo-7-(3,4-difluoro-phenyl)-2H-3-chromenyl)carbonyl]glycine]: 150 nM; `O=C(O)CNC(=O)c1c(O)c2ccc(-c3cc(F)c(F)c(F)c3)cc2oc1=O` [Example 11, N-[(4-hydroxy-2-oxo-7-(3,4,5-trifluoro-phenyl)-2H-3-chromenyl)carbonyl]glycine]: 150 nM.
As for `COc1cccc(-c2ccc3c(O)c(C(=O)NCC(=O)O)c(=O)oc3c2)c1` [Example 12, N-[(4-hydroxy-2-oxo-7-(3-methoxy-phenyl)-2H-3-chromenyl)carbonyl]glycine], the IC50 came to 150 nM.
The compound `COc1ccc(-c2ccc3c(O)c(C(=O)NCC(=O)O)c(=O)oc3c2)cc1` [Example 13, N-[(4-hydroxy-2-oxo-7-(4-methoxy-phenyl)-2H-3-chromenyl)carbonyl]glycine] had an IC50 of 150 nM. That is a sub-micromolar value.
Next, `Cc1cccc(-c2ccc3c(O)c(C(=O)NCC(=O)O)c(=O)oc3c2)c1` [Example 14, N-[(4-hydroxy-2-oxo-7-(3-methylphenyl)-2H-3-chromenyl)carbonyl]glycine]: 300 nM.
Take `Cc1ccc(-c2ccc3c(O)c(C(=O)NCC(=O)O)c(=O)oc3c2)cc1` [Example 15, N-[(4-hydroxy-2-oxo-7-(4-methylphenyl)-2H-3-chromenyl)carbonyl]glycine]: half-maximal inhibition (IC50) required 150 nM.
As to `O=C(O)CNC(=O)c1c(O)c2cccc(-c3ccccc3)c2oc1=O` [Example 16, N-[(4-hydroxy-2-oxo-8-phenyl-2H-3-chromenyl)carbonyl]glycine], half-maximal inhibition (IC50) required 350 nM.
Compound `O=C(O)CNC(=O)c1c(O)c2cccc(-c3ccccc3Cl)c2oc1=O` [Example 17, N-[(4-hydroxy-2-oxo-8-(2-chlorophenyl)-2H-3-chromenyl)carbonyl]glycine] registered an IC50 of 200 nM.
On to `O=C(O)CNC(=O)c1c(O)c2cccc(-c3cccc(Cl)c3)c2oc1=O` [Example 18, N-[(4-hydroxy-2-oxo-8-(3-chlorophenyl)-2H-3-chromenyl)carbonyl]glycine], for which inhibition was half-maximal at 90 nM (IC50).
`O=C(O)CNC(=O)c1c(O)c2cccc(-c3ccc(Cl)cc3)c2oc1=O` [Example 19, N-[(4-hydroxy-2-oxo-8-(4-chlorophenyl)-2H-3-chromenyl)carbonyl]glycine] registered an IC50 of 150 nM.
`O=C(O)CNC(=O)c1c(O)c2cccc(-c3cccc(C(F)(F)F)c3)c2oc1=O` [Example 20, N-[(4-hydroxy-2-oxo-8-(3-trifluoromethylphenyl)-2H-3-chromenyl)carbonyl]glycine] returned an IC50 of 100 nM. Against the preceding compound, the IC50 is about 1.5-fold lower.
`O=C(O)CNC(=O)c1c(O)c2cccc(-c3ccc(C(F)(F)F)cc3)c2oc1=O` [Example 21, N-[(4-hydroxy-2-oxo-8-(4-trifluoromethylphenyl)-2H-3-chromenyl)carbonyl]glycine]: it took 90 nM to reach half-maximal inhibition (IC50).
`O=C(O)CNC(=O)c1c(O)c2cccc(-c3cccc(OC(F)(F)F)c3)c2oc1=O` [Example 22, N-[(4-hydroxy-2-oxo-8-(3-trifluoromethoxyphenyl)-2H-3-chromenyl)carbonyl]glycine] displayed an IC50 of 100 nM. This IC50 and that of the compound before are within 1.5-fold of each other.
The compound `O=C(O)CNC(=O)c1c(O)c2cccc(-c3ccc(OC(F)(F)F)cc3)c2oc1=O` [Example 23, N-[(4-hydroxy-2-oxo-8-(4-trifluoromethoxyphenyl)-2H-3-chromenyl)carbonyl]glycine] had an IC50 of 150 nM. This IC50 lies about 1.5-fold higher than the previous one.
In the case of `O=C(O)CNC(=O)c1c(O)c2cccc(-c3ccc(Cl)c(Cl)c3)c2oc1=O` [Example 24, N-[(4-hydroxy-2-oxo-8-(3,4-dichlorophenyl)-2H-3-chromenyl)carbonyl]glycine], the IC50 turned out to be 30 nM.
On to `O=C(O)CNC(=O)c1c(O)c2cccc(-c3ccc(F)c(F)c3)c2oc1=O` [Example 25, N-[(4-hydroxy-2-oxo-8-(3,4-difluorophenyl)-2H-3-chromenyl)carbonyl]glycine], for which the IC50 came out at 150 nM.
Next, `O=C(O)CNC(=O)c1c(O)c2cccc(-c3cc(F)c(F)c(F)c3)c2oc1=O` [Example 26, N-[(4-hydroxy-2-oxo-8-(3,4,5-trifluorophenyl)-2H-3-chromenyl)carbonyl]glycine]: 150 nM.
In turn, `COc1cccc(-c2cccc3c(O)c(C(=O)NCC(=O)O)c(=O)oc23)c1` [Example 27, N-[(4-hydroxy-2-oxo-8-(3-methoxyphenyl)-2H-3-chromenyl)carbonyl]glycine] gave an IC50 of 150 nM. In other words, the sub-micromolar range.
Under `COc1ccc(-c2cccc3c(O)c(C(=O)NCC(=O)O)c(=O)oc23)cc1` [Example 28, N-[(4-hydroxy-2-oxo-8-(4-methoxyphenyl)-2H-3-chromenyl)carbonyl]glycine] stands 80 nM; under `Cc1cccc(-c2cccc3c(O)c(C(=O)NCC(=O)O)c(=O)oc23)c1` [Example 29, N-[(4-hydroxy-2-oxo-8-(3-methylphenyl)-2H-3-chromenyl)carbonyl]glycine], 150 nM; under `Cc1ccc(-c2cccc3c(O)c(C(=O)NCC(=O)O)c(=O)oc23)cc1` [Example 30, N-[(4-hydroxy-2-oxo-8-(4-methylphenyl)-2H-3-chromenyl)carbonyl]glycine], 80 nM.
Take `O=C(O)CNC(=O)c1c(O)c2ccc(-c3cccnc3)cc2oc1=O` [Example 33, N-[(4-hydroxy-2-oxo-7-(pyridin-3-yl)-2H-3-chromenyl)carbonyl]glycine]: the IC50 was found to be 200 nM.
Turning to `O=C(O)CNC(=O)c1c(O)c2ccc(Oc3ccccc3)cc2oc1=O` [Example 34, N-[(4-hydroxy-2-oxo-7-phenoxy-2H-3-chromenyl)carbonyl]glycine], half-maximal inhibition (IC50) was put at 150 nM. The IC50 values of the last two compounds are within 1.5-fold of each other.
The compound `O=C(O)CNC(=O)c1c(O)c2ccc(Br)cc2oc1=O` [Example 35, N-[(4-hydroxy-2-oxo-7-bromo-3-chromenyl)carbonyl]glycine] came in with an IC50 of 150 nM.
`O=C(O)CNC(=O)c1c(O)c2cccc(Br)c2oc1=O` [Example 36, N-[(4-hydroxy-2-oxo-8-bromo-3-chromenyl)carbonyl]glycine] displayed an IC50 of 300 nM.
Turning to `O=C(O)CNC(=O)c1c(O)c2cc(Br)ccc2oc1=O` [Example 37, N-[(4-hydroxy-2-oxo-6-bromo-3-chromenyl)carbonyl]glycine], half-maximal inhibition (IC50) was put at 700 nM.

These data come from patent US8742138B2, “Compounds as hypoxia mimetics, and compositions and uses thereof” (Betta Pharmaceuticals Co., Ltd., priority 2009, dated 2014).
